Data set [1] can be described thus: Assay C: metabolic stability in human liver microsomes (Human MST). The data set is classed as in vitro ADME. Particulars: pH 7.6, pooled human liver microsomes, 37° C., read-out: Assay C: Human MST t1/2. The procedure: C. Assessment of Metabolic Stability in Human Liver Microsomes (Human MST)
The metabolic stability of the compounds according to the invention may be investigated as follows:
The metabolic degradation of the test compound is assayed at 37° C. with pooled human liver microsomes. The final incubation volume of 100 μL per time point contains TRIS buffer pH 7.6 at room temperature (0.1 M), MgCl2 (5 mM), microsomal protein (1 mg/mL) and the test compound at a final concentration of 1 μM. Following a short pre-incubation period at 37° C., the reactions are initiated by addition of beta-nicotinamide adenine dinucleotide phosphate, reduced form (NADPH, 1 mM), and terminated by transferring an aliquot into solvent after different time points. After centrifugation (10000 g, 5 min), an aliquot of the supernatant is assayed by LC-MS/MS for the amount of parent compound. The half-life (t1/2) is determined by the slope of the semi-logarithmic plot of the concentration-time profile.
A general note: Liver microsomes are a subcellular fraction often used to study metabolism.

Another data set addresses T1, human Orexin 1 receptor (Homo sapiens, UniProt O43613).
T1 construct: stably expressing the full-length human Orexin 1 receptor; expressed in transfected cells; host or cells: CHO-K1 (CHO-K1/hOx1), co-expressing aequorin
T1 sequence (O43613 1-425): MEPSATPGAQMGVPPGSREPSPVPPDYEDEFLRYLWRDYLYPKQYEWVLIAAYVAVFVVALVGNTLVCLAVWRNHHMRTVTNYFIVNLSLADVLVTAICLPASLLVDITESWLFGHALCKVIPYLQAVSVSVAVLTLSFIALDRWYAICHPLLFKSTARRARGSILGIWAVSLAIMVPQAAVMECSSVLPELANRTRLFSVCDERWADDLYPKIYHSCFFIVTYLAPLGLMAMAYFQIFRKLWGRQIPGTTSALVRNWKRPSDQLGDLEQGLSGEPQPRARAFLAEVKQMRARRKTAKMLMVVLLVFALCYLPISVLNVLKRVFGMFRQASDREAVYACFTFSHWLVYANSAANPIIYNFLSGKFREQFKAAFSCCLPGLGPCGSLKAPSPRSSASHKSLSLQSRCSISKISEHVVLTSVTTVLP
Description: Assay A: in vitro testing of OX1R potency, OX1R IP1. The data set is classed as cell-based. Particulars: for Kb: 0.5 nM Orexin A concentration; for OX2R Kb/OX1R Kb: selectivity ratio of Assay B and Assay A Kb. An excerpt: Activation of the orexin receptors expressed in cell lines results in an increase in intracellular IP3 concentration. IP1, a downstream metabolite of IP3, accumulates in cells following receptor activation and is stable in the presence of LiCl. Using Homogeneous Time-Resolved Fluorescence technology with Lumi4-Tb cryptate (commercially available from Cisbio Bioassay.) and a suitable fluorescence plate reader. This functional response is detectable and quantifiable as described in Trinquet et al. Anal. Biochem. 2006, 358, 126-135, Degorce et al. Curr. Chem. Genomics 2009, 3, 22-32. This technique is used to characterize pharmacological modification of the orexin receptors.
A. In Vitro Testing of OX1R Potency: OX1R IP1
IP1 measurements are performed in CHO-K1 cells stably expressing the full-length human Orexin 1 receptor and the aequorin photoprotein. Cells are cultivated in Ham's nutrient mixture F12 medium with 10% fetal calf serum, in a 37° C., 95% humidity and 5% CO2 incubator. The CHO-K1/hOx1 cell mass is expanded to larger cell numbers. The cells are obtained as frozen cells in cryo-vials and stored until use at −150° C. The viability of the cells after thawing is >90%. In preparation for the assay, 24 hours before the assay, the cells are thawed at 37° C. and immediately diluted with cell culture medium. After centrifugation, the cell pellet is re-suspended in medium and then distributed into the assay plates with a density of 10000 cells/25 μL per well. The plates are incubated for one hour at room temperature to reduce edge effects before they are incubated for 24 hours at 37° C./5% CO2. Compounds are prepared by an 8-point serial dilution in DMSO and a final dilution step into assay buffer (HBSS with 20 mM HEPES, 0.1% BSA and 50 mM LiCl, pH 7.4) to ensure a final DMSO concentration of 1% in the assay.
On the day of the assay, cells in the plate are washed twice with 60 μL assay buffer (20 μL buffer remained in the wells after washing), followed by adding 5 μL per well of compounds diluted in assay buffer. After 15 minutes of incubation at room temperature 5 μL per well of Orexin A peptide (final concentration: 0.5 nM, and/or 50 nM) dissolved in assay buffer is added to the assay plate. The assay plate is incubated for 60 minutes at 37° C. Then 5 μl per well of Anti-IP1-Cryptate Tb solution and 5 μl per well of IP1-d2 dilution are added and the plate is incubated for a further 60 minutes light protected at room temperature. The emissions at 615 nm and 665 nm (Excitation wavelength: 320 nm) are measured using an EnVision reader (PerkinElmer). The ratio between the emission at 665 nm and 615 is calculated by the reader.
8-point four parametric non-linear curve fitting and determination of IC50 values and Hill slopes is performed using a regular analysis software e.g. AssayExplorer (Accelrys). In order to establish an agonist concentration independent parameter, Kb values are calculated using the following equation: IC50/((2+(A/EC50)^n)^1/n−1) (with A=concentration agonist, EC50=EC50 agonist, n=Hill slope agonist) (see P. Leff, I. G. Dougall, Trends Pharmacol. Sci. 1993, 14(4),110-112).

Take `C[C@@H](CNc1ncc(C(F)(F)F)cn1)N(CC(F)F)C(=O)c1c(F)cccc1-c1ncccn1` [Example 5]: in data set [1], the half-life at 1 μM is > 2.17 h. Besides, on human Orexin 1 receptor, the Kb was found to be 0.67 nM and the “OX2R Kb/OX1R Kb” value is reported as 213.

`C[C@@H](CNc1ncc(C(F)(F)F)cn1)N(CC(F)F)C(=O)c1cccc(F)c1-c1ncccn1` [Example 3]: the half-life at 1 μM in data set [1] was > 2.17 h. Also, at human Orexin 1 receptor, the Kb amounted to 0.19 nM and the “OX2R Kb/OX1R Kb” value was found to be 568.

On to `C[C@@H](CNc1ncc(C(F)(F)F)cn1)N(CC(F)F)C(=O)c1cc(F)ccc1-c1ncccn1` [Example 4], for which the half-life at 1 μM in data set [1] was > 2.17 h. Moreover, on human Orexin 1 receptor, the Kb was determined as 0.42 nM and the “OX2R Kb/OX1R Kb” value is 169.

Regarding `C[C@@H](CNc1ncc(C(F)(F)F)cn1)N(CC(F)F)C(=O)c1cc(F)cc(F)c1-n1nccn1` [Example 1], in data set [1], the half-life at 1 μM was > 2.17 h. On human Orexin 1 receptor, the Kb is 1.17 nM and the “OX2R Kb/OX1R Kb” value worked out at 214.

On to `C[C@@H](CNc1ncc(C(F)(F)F)cn1)N(CC(F)F)C(=O)c1cccc(F)c1-n1nccn1` [Example 2], for which the half-life at 1 μM in data set [1] was > 2.17 h. For the same compound, at human Orexin 1 receptor, the Kb was 0.63 nM and the “OX2R Kb/OX1R Kb” value was 138.

The values above are taken from patent US11324724B2, “N-(2,2-difluoroethyl)-N-[(pyrimidinylamino)propanyl]arylcarboxamides” (Boehringer Ingelheim International GmbH, priority 2017, dated 2022).
